Our source for the IC50 values is patent US7868204B2, “Inhibitors of histone deacetylase” (MethylGene Inc., priority 2001, dated 2011).

Read-outs that look alike come from different tables or passages of the source.

Assay [1] deals with T1, cloned recombinant human HDAC-1 (Homo sapiens, UniProt Q13547).
T1 construct: made in house; host or cells: Baculovirus insect cell expression system
Briefly: Human HDAC-1 enzyme inhibition, Assay 1 ([3H]-acetylated histone substrate, scintillation counting). Format: biochemical. The protocol:
Assay 1. HDAC inhibitors were screened against a cloned recombinant human HDAC-1 enzyme expressed and purified from a Baculovirus insect cell expression system. […] The mixture was extracted with ethyl acetate and the released [^3H]-acetic acid was quantified by scintillation counting. For inhibition studies, the enzyme was preincubated with compounds at 4° C. for 30 minutes prior to initiation of the enzymatic assay. IC50 values for HDAC enzyme inhibitors were determined by performing dose response curves with individual compounds and determining the concentration of inhibitor producing fifty percent of the maximal inhibition.

The next assay concerns HCT116 cells. Briefly: MTT assay. Format: cell-based. As to conditions: Homo sapiens, HCT116 cells, 72 hours. The method, then:
HCT116 cells (2000/well) were plated into 96-well tissue culture plates one day before compound treatment. Compounds at various concentrations were added to the cells. The cells were incubated for 72 hours at 37° C. in 5% CO2 incubator. MTT (3-[4,5-dimethylthiazol-2-yl]-2,5 diphenyl tetrazolium bromide, Sigma) was added at a final concentration of 0.5 mg/ml and incubated with the cells for 4 hours before one volume of solubilization buffer (50% N,N-dimethylformamide, 20% SDS, pH 4.7) was added onto the cultured cells. […] OD values were converted to cell numbers according to a standard growth curve of the relevant cell line.
For orientation: Tetrazolium assays rely on reduction of a dye to a coloured formazan, in cell work by metabolically active cells.

The mark [2] stands for this setting: Table 5a, read-out: Human HDAC-1 IC50.
Setting [3] is: Table 5c, read-out: Human HDAC-1 IC50.
Setting [4] is: Table 5d, read-out: HDAC-1 IC50.
Where [5] appears, read: Table 5F, read-out: Human HDAC-1 IC50.
Where [6] appears, read: Table 5b, read-out: Human HDAC-1 IC50.

T1 sequence (Q13547 whole entry): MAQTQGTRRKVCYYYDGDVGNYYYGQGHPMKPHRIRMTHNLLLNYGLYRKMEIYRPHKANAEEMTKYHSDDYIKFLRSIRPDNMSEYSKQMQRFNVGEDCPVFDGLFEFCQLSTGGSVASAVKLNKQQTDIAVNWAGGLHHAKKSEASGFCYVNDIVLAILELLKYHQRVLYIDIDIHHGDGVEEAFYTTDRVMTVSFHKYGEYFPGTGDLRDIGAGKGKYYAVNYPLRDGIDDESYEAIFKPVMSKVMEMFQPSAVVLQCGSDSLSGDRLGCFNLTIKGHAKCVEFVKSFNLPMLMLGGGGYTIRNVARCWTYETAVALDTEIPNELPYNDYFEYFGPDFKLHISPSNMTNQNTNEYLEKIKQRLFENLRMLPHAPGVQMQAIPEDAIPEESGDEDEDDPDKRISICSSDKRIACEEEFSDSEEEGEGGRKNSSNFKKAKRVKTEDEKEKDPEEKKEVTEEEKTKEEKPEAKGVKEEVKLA

Consider `Nc1ccccc1NC(=O)c1ccc(CNc2nc(NCCc3ccccc3)nc(NC3Cc4ccccc4C3)n2)cc1` [Cpd 27], for which the IC50 in assay [1] (setting [2]) was 0.4 µM; with HCT116 cells (HCT-116, 72 h, Table 5a), 2 µM.
Turning to `COc1ccc(CNc2cccc(/C=C/C(=O)Nc3ccccc3N)n2)cc1` [Cpd 51, N-(2-aminophenyl)-3-[6-(4-methoxy-benzylamino)-pyridin-2-yl]-acrylamide], the IC50 in assay [1] (setting [3]) was determined as 22 µM; in the assay with HCT116 cells (HCT-116, 72 h, Table 5c), 4 µM.
Turning to `COc1cc(SCc2ccc(/C=C/C(=O)Nc3ccccc3N)cc2)cc(OC)c1OC` [Cpd 500, N-(2-Amino-phenyl)-3-[4-(3,4,5-trimethoxy-phenylsulfanylmethyl)-phenyl]-acrylamide], the IC50 in assay [1] (setting [4]) worked out at 23 µM; in the assay with HCT116 cells (HCT-116, Table 5d) it was 37 µM.
For `Nc1ccccc1NC(=O)c1ccc(-c2noc(CN3CCOCC3)n2)cc1` [Cpd 355, N-(2-Amino-phenyl)-4-(5-morpholin-4-ylmethyl-[1,2,4]oxadiazol-3-yl)-benzamide], the IC50 in assay [1] (setting [5]) is 25 µM; with HCT116 cells (HCT-116, 72 h, Table 5F) it was 10 µM.
Consider `Nc1ccccc1NC(=O)/C=C/c1ccc(NC/C=C/c2ccccc2)cc1` [Cpd 71], for which the IC50 in assay [1] (setting [3]) was determined as 10 µM; in the assay with HCT116 cells (HCT-116, 72 h, Table 5c), 44 µM.
Turning to `Nc1ccccc1NC(=O)c1ccc(Oc2ccccc2)cc1` [Cpd 366, N-(2-Amino-phenyl)-4-phenoxy-benzamide], the IC50 worked out at 14 µM in assay [1] (setting [5]) and 10 µM in the assay with HCT116 cells (HCT-116, 72 h, Table 5F).
For the compound `CSc1ccc(NCc2ccc(/C=C/C(=O)Nc3ccccc3N)cc2)cc1C(F)(F)F` [Cpd 566, N-(2-Amino-phenyl)-3-{4-[(4-methylsulfanyl-3-trifluoromethyl-phenylamino)-methyl]-phenyl]-acrylamide], the IC50 in assay [1] (setting [4]) was 3 µM; with HCT116 cells (HCT-116, Table 5d), 16 µM.
As to `Nc1ccccc1NC(=O)c1ccc(-c2noc(CN3CCCCC3)n2)cc1` [Cpd 354, N-(2-Amino-phenyl)-4-(5-piperidin-1-ylmethyl-[1,2,4]oxadiazol-3-yl)-benzamide], the IC50 in assay [1] (setting [5]) is 15 µM; in the assay with HCT116 cells (HCT-116, 72 h, Table 5F), 5 µM.
With `Nc1ccccc1NC(=O)c1ccc(C#Cc2ccccc2)cc1` [Cpd 196], the IC50 in assay [1] (setting [5]) was 4 µM; in the assay on HCT116 cells (HCT-116, 72 h, Table 5F) it was 3 µM.
Consider `COc1ccc(NCc2ccc(/C=C/C(=O)Nc3ccccc3N)cc2)cc1CNc1cc(OC)c(OC)c(OC)c1` [Cpd 563, N-(2-Amino-phenyl)-3-[4-([4-methoxy-3-[(3,4,5-trimethoxy-phenylamino)-methyl]-phenylamino}-methyl)-phenyl]-acrylamide], for which the IC50 came out at 24 µM in assay [1] (setting [4]) and 6 µM in the assay on HCT116 cells (HCT-116, Table 5d).
As to `Nc1ccccc1NC(=O)c1ccc(CNc2nc(N3CCCCC3)nc(N3CCCCC3)n2)cc1` [Cpd 26, N-(2-Amino-phenyl)-4-[(4,6-di-piperidin-1-yl-[1,3,5]triazin-2-ylamino)-methyl]-benzamide], the IC50 in assay [1] (setting [2]) is 0.5 µM; with HCT116 cells (HCT-116, 72 h, Table 5a), 2 µM.
`Nc1ccccc1NC(=O)c1ccc(C(=O)Nc2ccccc2N)nc1` [Cpd 380, Pyridine-2,5-dicarboxylic acid bis-[(2-amino-phenyl)-amide]]: the IC50 was determined as 6 µM in assay [1] (setting [5]) and 8 µM in the assay on HCT116 cells (HCT-116, 72 h, Table 5F).
The matching figures for `COc1ccc(C2=NC(c3ccc(C(=O)Nc4ccccc4N)cc3)CO2)cc1OC` (stereo not drawn) [compound 301, N-(2-Amino-phenyl)-4-[2-(3,4-dimethoxy-phenyl)-4,5-dihydro-oxazol-4-yl]-benzamide]: 3 µM and 3 µM.
On to `Nc1ccccc1NC(=O)/C=C/c1ccc(NCCNc2nccs2)nc1` [Cpd 522, N-(2-Amino-phenyl)-3-{6-[2-(thiazol-2-ylamino)-ethylamino]-pyridin-3-yl}-acrylamide], for which the IC50 in assay [1] (setting [4]) was 17 µM; with HCT116 cells (HCT-116, Table 5d), 30 µM.
Consider `Nc1ccccc1NC(=O)c1ccc(Sc2ccc3ccccc3n2)nc1` [compound 319, N-(2-Amino-phenyl)-6-(quinolin-2-ylsulfanyl)-nicotinamide], for which the IC50 in assay [1] (setting [5]) amounted to 4 µM; in the assay on HCT116 cells (HCT-116, 72 h, Table 5F), 8 µM.
For the compound `Nc1ccccc1NC(=O)/C=C/c1ccc(CNc2cccc(Br)c2)cc1` [Cpd 546, N-(2-Amino-phenyl)-3-{4-[(3-bromo-phenylamino)-methyl]-phenyl}-acrylamide], the IC50 in assay [1] (setting [4]) worked out at 3 µM; in the assay on HCT116 cells (HCT-116, Table 5d), 10 µM.
For `Nc1ccccc1NC(=O)c1ccc(NC(=O)C(F)(F)F)cc1` [Cpd 431, N-(2-Aminophenyl)-4-(2,2,2-trifluoro-acetylamino)-benzamide], the IC50 in assay [1] (setting [5]) was 5 µM; in the assay on HCT116 cells (HCT-116, 72 h, Table 5F), 5 µM.
For the compound `COc1ccc(NCc2ccc(/C=C/C(=O)Nc3ccccc3N)cc2)c(OC)c1OC` [Cpd 562, N-(2-Amino-phenyl)-3-[4-[(2,3,4-trimethoxy-phenylamino)-methyl]-phenyl}-acrylamide], the IC50 turned out to be 5 µM in assay [1] (setting [4]) and 5 µM with HCT116 cells (HCT-116, Table 5d).
As to `COc1cccc(-c2ccc(C(=O)Nc3ccccc3N)cn2)c1` [Cpd 141, N-(2-Amino-phenyl)-6-(3-methoxyphenyl)-nicotinamide], the IC50 in assay [1] (Table 5E, read-out: Human HDAC-1 IC50) worked out at 7 µM; in the assay with HCT116 cells (HCT-116, 72 h, Table 5E) it was 10 µM.
`Nc1ccccc1NC(=O)/C=C/c1ccc(CNc2ccc(Br)cn2)cc1` [Cpd 557, N-(2-Amino-phenyl)-3-{4-[(5-bromo-pyridin-2-ylamino)-methyl]-phenyl}acrylamide]: the 50% inhibitory concentration (IC50) in assay [1] (setting [4]) was found to be 4 µM; with HCT116 cells (HCT-116, Table 5d), 6 µM.
With `COc1ccc(C(=O)Nc2ccc(/C=C/C(=O)Nc3ccccc3N)cn2)cc1` [Cpd 114], the IC50 in assay [1] (setting [3]) came out at 25 µM; in the assay with HCT116 cells (HCT-116, 72 h, Table 5c), 0.5 µM.
Turning to `Nc1ccccc1NC(=O)c1ccc(CNc2nc(NCCc3ccccn3)nc(NC3CC3)n2)cc1` [Cpd 480], the IC50 in assay [1] (setting [6]) turned out to be 0.8 µM; in the assay with HCT116 cells (HCT-116, 72 h, Table 5b), 0.5 µM.
The matching figures for `Nc1ccccc1NC(=O)c1ccc(CNc2nc(NC3CC3)nc(OCCc3ccccc3)n2)cc1` [Cpd 482]: 0.1 µM and 0.7 µM.
On to `Nc1ccccc1NC(=O)/C=C/c1ccc(CNc2cccc(S(=O)(=O)NCCCN3CCOCC3)c2)cc1` [Cpd 539, N-(2-Amino-phenyl)-3-(4-{[3-(3-morpholin-4-yl-propylsulfamoyl)-phenylamino]-methyl}-phenyl)-acrylamide], for which the 50% inhibitory concentration (IC50) in assay [1] (setting [4]) was 2 µM; in the assay with HCT116 cells (HCT-116, Table 5d), 10 µM.
Turning to `COc1ccc(C(=O)Nc2ccc(/C=C/C(=O)Nc3ccccc3N)cc2)cc1` [Cpd 72, N-(4-[2-(2-Amino-phenylcarbamoyl)-vinyl]-phenyl}-4-methoxy-benzamide], the IC50 is 16 µM in assay [1] (setting [3]) and 21 µM in the assay with HCT116 cells (HCT-116, 72 h, Table 5c).
Consider `COc1cccc(CCNc2nc(NCc3ccc(C(=O)Nc4ccccc4N)cc3)nc(NC3CC3)n2)c1` [Cpd 479], for which the IC50 in assay [1] (setting [6]) came to 0.4 µM; in the assay with HCT116 cells (HCT-116, 72 h, Table 5b), 0.6 µM.
As to `CC(C)(O)C#Cc1ccc(C(=O)Nc2ccccc2N)cc1` [Cpd 195], the IC50 in assay [1] (setting [5]) was 7 µM; with HCT116 cells (HCT-116, 72 h, Table 5F), 9 µM.
For `COc1cc(C2C=CC(c3ccc(C(=O)Nc4ccccc4N)cc3)O2)cc(OC)c1OC` (stereo not drawn) [compound 289, N-(2-Amino-phenyl)-4-[5-(3,4,5-trimethoxy-phenyl)-2,5-dihydro-furan-2-yl]-benzamide], in that order: 17 µM and 5 µM.
As to `Nc1ccccc1NC(=O)c1ccc(N2CCOCC2)cc1` [Cpd 238], the IC50 in assay [1] (setting [5]) stood at 3 µM; in the assay with HCT116 cells (HCT-116, 72 h, Table 5F) it was 6 µM.
With `COc1ccc(CNc2ncc(/C=C/C(=O)Nc3ccccc3N)cn2)cc1` [Cpd 118, N-(2-amino-phenyl)-3-[2(4-methoxy-benzylamino)-pyrimidin-5-yl]-acrylamide], the IC50 turned out to be 11 µM in assay [1] (setting [3]) and 8 µM with HCT116 cells (HCT-116, 72 h, Table 5c).
As for `Nc1ccccc1NC(=O)/C=C/c1ccc(CNc2ccc([N+](=O)[O-])c(C(F)(F)F)c2)cc1` [Cpd 534, N-(2-Amino-phenyl)-3-{4[(4-nitro-3-trifluoromethyl-phenylamino)-methyl]-phenyl}-acrylamide], the IC50 in assay [1] (setting [4]) is 3 µM; in the assay with HCT116 cells (HCT-116, Table 5d), 5 µM.
Take `Nc1ccc(CNc2ncc(/C=C/C(=O)Nc3ccccc3N)cn2)cc1` [Cpd 115, 3-[2-(4-amino-benzylamino)-pyrimidin-5-yl]-N-(2-amino-phenyl)-acrylamide]: the IC50 was 15 µM in assay [1] (setting [3]) and 9 µM with HCT116 cells (HCT-116, 72 h, Table 5c).
Turning to `Nc1nc(CCc2ccc(C(=O)Nc3ccccc3N)cc2)nc(N2CCCCC2)n1` [Cpd 224], the IC50 in assay [1] (setting [6]) came out at 5 µM; with HCT116 cells (HCT-116, 72 h, Table 5b) it was 3 µM.
On to `C[Si](C)(C)C#Cc1ccc(C(=N)Nc2ccccc2N)cc1` [Cpd 198], for which the IC50 in assay [1] (setting [5]) was 24 µM; in the assay on HCT116 cells (HCT-116, Table 5F) it was 14 µM.
With `Nc1ccccc1NC(=O)/C=C/c1ccc(Br)cc1` [Cpd 516, N-(2-Amino-phenyl)-3-(4-bromo-phenyl)-acrylamide], the IC50 was 15 µM in assay [1] (setting [4]) and 15 µM with HCT116 cells (HCT-116, Table 5d).
On to `C=C(C)C#Cc1ccc(C(=O)Nc2ccccc2N)cc1` [Cpd 193], for which the IC50 stood at 4 µM in assay [1] (setting [5]) and 16 µM in the assay on HCT116 cells (HCT-116, 72 h, Table 5F).

Broadly, the IC50 is the concentration that gives 50% inhibition.
